This is an account of results in PMC8812913 (PLoS Neglected Tropical Diseases, 2022).

A word on the Tmax: it is the time from dosing to the highest level. A word on the AUC(0-t): it is exposure summed from dosing to a finite time, without extrapolation to infinity. Lower therefore signals low exposure. A word on the Cmax: it is the highest concentration seen after dosing. As a reminder, the MRT last is the average time that molecules of a dose stay in the body. For orientation: EC50 means the concentration needed to bring the measured effect to its halfway point. Usually EC90 stands for the point of the concentration-response curve where the effect stands at 90%.

Where two headings read alike, the source gives them in different places.

For data set [1] the following is noted: male, Syrian golden, hamster, in vivo, po, 500 mg/kg.
For data set [2] the following is noted: male, Syrian golden, hamster, in vivo, po, 500 mg/kg. This is another data set of the same source.
The nature of data set [3]: in vivo. The conditions noted are these: male, Syrian golden, hamster, po, 500 mg/kg.
The nature of data set [4]: in vivo. The conditions noted are these: male, Syrian golden, hamster, po, 500 mg/kg. The source holds these as a separate data set.
In data set [5] the test system is Yellow fever virus (YFV). The conditions noted are these: read-out: EC50, 50% inhibition of the virus-induced cytopathic effect (CPE); cited from earlier work.
The test system of data set [6] is Yellow fever virus (YFV). The conditions noted are these: read-out: EC90 in reducing viral yield; cited from earlier work.
A further data set deals with HCV clinical isolates. The conditions noted are these: cited from earlier work.
For data set [7] the following is noted: cited from earlier work.
For data set [8] the following is noted: cited from earlier work. This is another data set of the same source.

Turning to `C[C@@]1(F)[C@H](O)[C@@H](CO)O[C@H]1n1cnc2c(=O)[nH]c(N)nc21` [AT-273], the “Plasma concentration at 12 h post dose (Ctrough)” value (“Plasma concentration” for short) in [1] amounted to 600 ± 100 nM. The Tmax in [2] amounted to 8.0 h. In the data set “in vivo [3]”, the AUC(0-t) turned out to be 10.8 ± 1.6 µM·h, the peak level (Cmax) was 900 ± 100 nM, the MRT last was 9.8 ± 1.1 h and the Tmax stood at 5.7 ± 4 h. Besides, the MRT last in the data set “in vivo [4]” (MRT0-last) amounted to 11.6 h.
On to `CNc1nc(N)nc2c1ncn2C1OC(COP(=O)(NC(C)C(=O)OC(C)C)Oc2ccccc2)C(O)C1(C)F` (stereo not drawn) [AT-281], for which the “Plasma concentration” value in data set [1] worked out at 6 ± 2 nM. Further, in data set [2], the “Concentration measured in brain tissue” value is on record as “no AT-281 was detected”, the “Concentration measured in lung tissue” value is “no AT-281 was detected” and the MRT0-last amounted to 4.5 h. The EC50 with Yellow fever virus (YFV) [5] was 310 nM. The EC90 in the data set with Yellow fever virus (YFV) [6] was 260 nM. In “in vivo [3]”, the AUC(0-t) came to 1.7 ± 0.5 µM·h, the concentration peaked (Cmax) at 600 ± 200 nM, the MRT last came to 3.4 ± 1 h and the Tmax turned out to be 2 ± 1.7 h. For the same molecule, in “in vivo [4]” (MRT0-last), the MRT last was 4.2 h. Further, in the data set “in vivo [4]”, the Tmax is 2 h.
Turning to `CNc1nc(N)nc2c1ncn2[C@@H]1O[C@H](COP(=O)(N[C@@H](C)C(=O)OC(C)C)Oc2ccccc2)[C@@H](O)[C@@]1(C)F.CNc1nc(N)nc2c1ncn2[C@@H]1O[C@H](COP(=O)(N[C@@H](C)C(=O)OC(C)C)Oc2ccccc2)[C@@H](O)[C@@]1(C)F.O=S(=O)(O)O` (stereo partly drawn) [AT-527], in the data set on HCV clinical isolates, the “Fold more potent than sofosbuvir” value was “up to 58 fold”.
As to `CNc1nc(N)nc2c1ncn2C1OC(COP(=O)(O)NC(C)C(=O)O)C(O)C1(C)F` (stereo not drawn) [AT-551], the “Plasma concentration” value in data set [1] was determined as 3400 ± 1700 nM. In data set [2], the Tmax stood at 2.0 h. In the data set “in vivo [3]”, the AUC(0-t) stood at 114 ± 22.1 µM·h, the Cmax turned out to be 52400 ± 23500 nM, the MRT last is 4.6 ± 1.5 h and the Tmax worked out at 0.5 h. Further, in “in vivo [4]” (MRT0-last), the MRT last came to 8.5 h.
With `CNc1nc(N)nc2c1ncn2C1OC(COP(=O)(NC(C)C(=O)OC(C)C)Oc2ccccc2)C(O)C1(C)F` (stereo not drawn) [AT-752], the Alive/total (21 days) is on record as 5/5. The molecule further gave an ALT (hamster, in vivo) of 53 ± 5 IU/L. Moreover, the “Toxicity, as evidenced by weight loss or mortality” value (hamster, in vivo, 1000 mg/kg) was “no toxicity”. Further, the “Half-life in rodent plasma” value in data set [7] is listed as below 3 min. Moreover, the “Half-life in primate plasma” value in [8] is above 4.67 h.
On to `C[C@@]1(F)[C@H](O)[C@@H](COP(=O)(O)OP(=O)(O)OP(=O)(O)O)O[C@H]1n1cnc2c(=O)[nH]c(N)nc21` [AT-9010], for which, in data set [2], the “Concentration measured in brain tissue” value is “no AT-9010 detected”. The MRT last in “in vivo [4]” (MRT0-last) is 11 h; in “in vivo [4]” (Mean residence times (MRT0-last) across tissues), 7 to 11 h. Besides, in the data set “in vivo [4]”, the Tmax was found to be 8 h.
